We go through four compounds from patent US4822823A, “Aqueous preparation and method of preparation thereof” (priority 1986, dated 1989).

Series [1] is described as follows: Stability test of compound (A) with α-cyclodextrin at varying pHs. The format is physicochemical. As for the experimental part:
Stability test of compound (A) was performed in the following formula at varying pHs: […]
Purified Water amount totaling 1000 ml
Note: The data are represented in terms of persistence rate (%).

For series [2] the following is noted: 25° C.; cited from earlier work.
The subject of series [3] is 5-riboxygenase. The following applies: cited from earlier work.
Series [4] has as its system production of SRS-A or LTB4. As to conditions: cited from earlier work.
The test system of series [5] is experimental allergic asthma. The following applies: IgG and IgE, Guinea pigs; cited from earlier work.
Series [6] deals with experimental allergic asthma. As to conditions: IgE, rats; cited from earlier work.
For series [7] the following is noted: for enhancement of solubility of compound (A) (in words): phosphoric acid buffer pH 6.0. As for the experimental part:
The dissolution-assisting agents used as a control are β-cyclodextrin, γ-cyclodextrin, polyvinyl pyrrolidone (hereinbelow abbreviated as PVP), polyoxyethylene monostearate (hereinbelow abbreviated as MYS-40), polyoxyethylene sorbitan monooleate (hereinbelow abbreviated as TO-80), and polyoxyethylene cured castor oil (hereinbelow abbreviated as HCO-40, HCO-60).
Solubility was determined by dissolving the respective dissolution-assisting agents into 0.2 mole of phosphoric acid buffer solution (Na2 HPO4 NaH2 PO4, pH 6.0), then adding excessive amount of compound (A) and shaking the mixed solution at room temperature (15° C.~20° C.) for 5 days, centrifuging the solution, filtering the supernatant by use of cotton stoppers, and subsequently measuring the concentration of compound (A) contained in the filtrate with a high-speed liquid chromatography.

“Also recorded” adds a separate entry of the source. Read-outs that look alike come from different tables or passages of the source.

Take `CC1=C(C)C(=O)C(CCCCC#CCCCC#CCO)=C(C)C1=O` [Compound (A)]: the persistence rate in series [1] (60° C.-3 days, pH 4.0, with α-cyclodextrin) came out at 101.2%; in series [1] (60° C.-3 days, pH 5.0, with α-cyclodextrin) it was 102.6%; in series [1] (60° C.-3 days, pH 6.0, with α-cyclodextrin), 102.5%; in series [1] (60° C.-3 days, pH 7.0, with α-cyclodextrin), 93.3%; in series [1] (60° C.-5 days, pH 4.0, with α-cyclodextrin), 102.5%; in series [1] (60° C.-5 days, pH 5.0, with α-cyclodextrin), 99.5%. Also, the persistence rate in series [1] (60° C.-5 days, pH 6.0, with α-cyclodextrin) came out at 102.8%; in series [1] (60° C.-5 days, pH 7.0, with α-cyclodextrin) it was 87.6%; in series [1] (Room temp.-5 days, pH 4.0, with α-cyclodextrin), 99.6%; in series [1] (Room temp.-5 days, pH 5.0, with α-cyclodextrin), 103.0%; in series [1] (Room temp.-5 days, pH 6.0, with α-cyclodextrin), 99.4%; in series [1] (Room temp.-5 days, pH 7.0, with α-cyclodextrin) it was 99.1%. For the same compound, in series [2], the solubility to water entry is listed as “less than 10 ng/ml”. Besides, the “5-riboxygenase inhibition (in words)” value in series [3] is given as “selective inhibitor for 5-riboxygenase”. The “inhibition of production of SRS-A or LTB4 (in words)” value in series [4] was “inhibit the production of SRS-A or LTB4”. In addition, the “effect on experimental allergic asthma (in words)” value in series [5] and in series [6] was “showing experimental allergic asthma” in each case.
On to `OC[C@H]1O[C@@H]2O[C@H]3[C@H](O)[C@@H](O)[C@@H](O[C@H]4[C@H](O)[C@@H](O)[C@@H](O[C@H]5[C@H](O)[C@@H](O)[C@@H](O[C@H]6[C@H](O)[C@@H](O)[C@@H](O[C@H]7[C@H](O)[C@@H](O)[C@@H](O[C@H]1[C@H](O)[C@H]2O)O[C@@H]7CO)O[C@@H]6CO)O[C@@H]5CO)O[C@@H]4CO)O[C@@H]3CO` [α-cyclodextrin], for which, in series [7] (compound (A), versus phosphoric acid buffer having pH 6), the “solubility-enhancing effect relative to phosphoric acid buffer” value is recorded as 1000 times. For the same compound, the “enhancement of solubility of compound (A) (in words)” value in series [7] is listed as “remarkably enhances the solubility of compound (A) without impairing its stability; also recorded: highly advantageous effect; also recorded: prominent enhancement of solubility”.
On to dimethyl-β-cyclodextrin, for which, in series [7] (pH 6), the “solubility-enhancing effect relative to phosphoric acid buffer” value stood at 1000 times.
Regarding `OC[C@H]1O[C@@H]2O[C@H]3[C@H](O)[C@@H](O)[C@@H](O[C@H]4[C@H](O)[C@@H](O)[C@@H](O[C@H]5[C@H](O)[C@@H](O)[C@@H](O[C@H]6[C@H](O)[C@@H](O)[C@@H](O[C@H]7[C@H](O)[C@@H](O)[C@@H](O[C@H]8[C@H](O)[C@@H](O)[C@@H](O[C@H]9[C@H](O)[C@@H](O)[C@@H](O[C@H]1[C@H](O)[C@H]2O)O[C@@H]9CO)O[C@@H]8CO)O[C@@H]7CO)O[C@@H]6CO)O[C@@H]5CO)O[C@@H]4CO)O[C@@H]3CO` [γ-cyclodextrin, reference compound], the “enhancement of solubility of compound (A) (in words)” value in series [7] was “do not show any intended effect; also recorded: can hardly enhance the solubility”.
